In US9820972B2, “Antiviral compounds highly effective as HCV-NS5A inhibitor” (priority 2013, dated 2017):
pEC50: −log10 of the molar value.

Test system: GT-1a of NS5A Replicon
Test: HCV double reporter gene (Renilla luciferase) replicon assay, GT-1a
Format: cell-based, Hepatitis C virus (HCV)
Details: Hepatitis C virus, GT1A, GT-1a replicon; class symbols; read-out: EC50 For GT-1a of NS5A Replicon
Experimental: Antiviral Assay for Inhibition Activity (EC50):
The study is completed by a new constructed double reporter genes replicon assay system, the capacity of viral replicon in infected cell is determined by detecting the reporter gene Renilla luciferase. The relationship of reporter genes, HCV RNA replicon and viral proteins is well linear. 8 gradient concentrations for 2-fold dilution, 3 wells, 3 times repetition and 1 or 2 control drugs are set to finally determine EC50 of compound.
THF was distilled from sodium metal and benzophenone. DCM, pentane and hexane were distilled form calcium hydride. Special raw material and intermediate in the invention were ordered by contract synthesis from Zannan SciTech Co., Let in China, others reagents were purchased from Shanghai reagent company, Aldrich, Acros etc. As intermediates or products during the synthesis is not required for the reaction and other tests the next step, the synthesis is repeated until a sufficient number of times. The invention of the prepared compounds of […] (HCV NS5A) inhibitory activity test was performed by CRO service units such as WuXi AppTec etc.

| Structure (SMILES) | pEC50 |
| --- | --- |
| COC(=O)N[C@H](C(=O)N1C[C@H](OC(=O)N2Cc3ccc4c(c3C2)OCO4)CC1c1ncc(-c2ccc(-c3ccc(-c4c[nH]c([C@@H]5CCCN5C(=O)[C@@H](NC(=O)OC)C(C)C)n4)cc3)cc2)[nH]1)C(C)C (stereo partly shown) [Compound 6a] | 9.00 to 12.00 |
| COC(=O)N[C@H](C(=O)N1CCCC1c1nc(-c2ccc(-c3ccc(-c4c[nH]c([C@@H]5CCCN5C(=O)C5(NC(=O)OC)CCCCC5)n4)cc3)cc2)c[nH]1)C(C)C (stereo partly shown) [Compound 6aa] | 9.00 to 12.00 |
| COC(=O)N[C@H](C(=O)N1CCCC1c1nc(-c2ccc(-c3ccc(-c4c[nH]c([C@@H]5CCCCN5C(=O)[C@@H](NC(=O)OC)C(C)C)n4)cc3)cc2)c[nH]1)C(C)C (stereo partly shown) [Compound 6ab] | 9.00 to 12.00 |
| COC(=O)N[C@H](C(=O)N1C[C@@H](OC(=O)N2Cc3cc4c(cc3C2)OCO4)CC1c1nc(-c2ccc(-c3ccc(-c4c[nH]c([C@@H]5CCCCN5C(=O)[C@@H](NC(=O)OC)C(C)C)n4)cc3)cc2)c[nH]1)C(C)C (stereo partly shown) [Compound 6ac] | 9.00 to 12.00 |
| COC(=O)N[C@H](C(=O)N1C[C@@H](OC(=O)N2Cc3ccc4c(c3C2)OCO4)CC1c1nc(-c2ccc(-c3ccc(-c4c[nH]c([C@@H]5CCCCN5C(=O)[C@@H](NC(=O)OC)C(C)C)n4)cc3)cc2)c[nH]1)C(C)C (stereo partly shown) [Compound 6ad] | 9.00 to 12.00 |
| COC(=O)N[C@H](C(=O)N1CN(C(=O)N2Cc3ccc4c(c3C2)OCO4)CC1c1nc(-c2ccc(-c3ccc(-c4c[nH]c([C@@H]5CCCN5C(=O)[C@@H](NC(=O)OC)C(C)C)n4)cc3)cc2)c[nH]1)C(C)C (stereo partly shown) [Compound 6ae] | 9.00 to 12.00 |
| COC(=O)N[C@H](C(=O)N1CN(C(=O)N2Cc3cc4c(cc3C2)OCO4)CC1c1nc(-c2ccc(-c3ccc(-c4c[nH]c([C@@H]5CCCN5C(=O)[C@@H](NC(=O)OC)C(C)C)n4)cc3)cc2)c[nH]1)C(C)C (stereo partly shown) [Compound 6af] | 9.00 to 12.00 |
| COC(=O)N[C@H](C(=O)N1CCCC1c1nc(-c2ccc(-c3ccc(-c4c[nH]c([C@@H]5COCCN5C(=O)[C@@H](NC(=O)OC)C(C)C)n4)cc3)cc2)c[nH]1)C(C)C (stereo partly shown) [Compound 6ag] | 9.00 to 12.00 |
| COC(=O)N[C@H](C(=O)N1C[C@@H](OC(=O)N2Cc3cc4c(cc3C2)OCO4)CC1c1nc(-c2ccc(-c3ccc(-c4c[nH]c([C@@H]5COCCN5C(=O)[C@@H](NC(=O)OC)C(C)C)n4)cc3)cc2)c[nH]1)C(C)C (stereo partly shown) [Compound 6ah] | 9.00 to 12.00 |
| COC(=O)N[C@H](C(=O)N1C[C@@H](OC(=O)N2Cc3ccc4c(c3C2)OCO4)CC1c1nc(-c2ccc(-c3ccc(-c4c[nH]c([C@@H]5COCCN5C(=O)[C@@H](NC(=O)OC)C(C)C)n4)cc3)cc2)c[nH]1)C(C)C (stereo partly shown) [Compound 6ai] | 9.00 to 12.00 |
| COC(=O)N[C@H](C(=O)N1CCCCC1c1nc(-c2ccc(-c3ccc(-c4c[nH]c([C@@H]5COCCN5C(=O)[C@@H](NC(=O)OC)C(C)C)n4)cc3)cc2)c[nH]1)C(C)C (stereo partly shown) [Compound 6aj] | 9.00 to 12.00 |
| COC(=O)N[C@H](C(=O)N1CC(OC(=O)N2Cc3cc4c(cc3C2)OCO4)CC1c1nc(-c2ccc(-c3ccc(-c4c[nH]c([C@@H]5CC6(CC6)CN5C(=O)[C@@H](NC(=O)OC)C(C)C)n4)cc3)cc2)c[nH]1)C(C)C (stereo partly shown) [Compound 6ak] | 9.00 to 12.00 |
| COC(=O)N[C@H](C(=O)N1CN(C(=O)N2Cc3cc4c(cc3C2)OCO4)CC1c1nc(-c2ccc(-c3ccc(-c4c[nH]c([C@@H]5CC6(CC6)CN5C(=O)[C@@H](NC(=O)OC)C(C)C)n4)cc3)cc2)c[nH]1)C(C)C (stereo partly shown) [Compound 6am] | 9.00 to 12.00 |
| COC(=O)N[C@H](C(=O)N1CC(OC(=O)N2Cc3ccc4c(c3C2)OCO4)CC1c1nc(-c2ccc(-c3ccc(-c4c[nH]c([C@@H]5CC6(CC6)CN5C(=O)[C@@H](NC(=O)OC)C(C)C)n4)cc3)cc2)c[nH]1)C(C)C (stereo partly shown) [Compound 6an] | 9.00 to 12.00 |
| COC(=O)N[C@H](C(=O)N1CN(C(=O)N2Cc3ccc4c(c3C2)OCO4)CC1c1nc(-c2ccc(-c3ccc(-c4c[nH]c([C@@H]5CC6(CC6)CN5C(=O)[C@@H](NC(=O)OC)C(C)C)n4)cc3)cc2)c[nH]1)C(C)C (stereo partly shown) [Compound 6ap] | 9.00 to 12.00 |
| COC(=O)N[C@H](C(=O)N1CN(C(=O)N2Cc3ccccc3C2)CC1c1nc(-c2ccc(-c3ccc(-c4c[nH]c([C@@H]5CCCN5C(=O)[C@@H](NC(=O)OC)C(C)C)n4)cc3)cc2)c[nH]1)C(C)C (stereo partly shown) [Compound 6aq] | 9.00 to 12.00 |
| COC(=O)N[C@H](C(=O)N1CN(C(=O)N2Cc3cccc(F)c3C2)CC1c1nc(-c2ccc(-c3ccc(-c4c[nH]c([C@@H]5CCCN5C(=O)[C@@H](NC(=O)OC)C(C)C)n4)cc3)cc2)c[nH]1)C(C)C (stereo partly shown) [Compound 6ar] | 9.00 to 12.00 |
| COC(=O)N[C@H](C(=O)N1CN(C(=O)N2Cc3ccc(F)cc3C2)CC1c1nc(-c2ccc(-c3ccc(-c4c[nH]c([C@@H]5CCCN5C(=O)[C@@H](NC(=O)OC)C(C)C)n4)cc3)cc2)c[nH]1)C(C)C (stereo partly shown) [Compound 6as] | 9.00 to 12.00 |
| COC(=O)N[C@H](C(=O)N1CN(C(=O)N2Cc3cccc(Cl)c3C2)CC1c1nc(-c2ccc(-c3ccc(-c4c[nH]c([C@@H]5CCCN5C(=O)[C@@H](NC(=O)OC)C(C)C)n4)cc3)cc2)c[nH]1)C(C)C (stereo partly shown) [Compound 6at] | 9.00 to 12.00 |
| COC(=O)N[C@H](C(=O)N1CN(C(=O)N2Cc3ccc(Cl)cc3C2)CC1c1nc(-c2ccc(-c3ccc(-c4c[nH]c([C@@H]5CCCN5C(=O)[C@@H](NC(=O)OC)C(C)C)n4)cc3)cc2)c[nH]1)C(C)C (stereo partly shown) [Compound 6au] | 9.00 to 12.00 |
| COC(=O)N[C@H](C(=O)N1CN(C(=O)N2Cc3ccc(OC)cc3C2)CC1c1nc(-c2ccc(-c3ccc(-c4c[nH]c([C@@H]5CCCN5C(=O)[C@@H](NC(=O)OC)C(C)C)n4)cc3)cc2)c[nH]1)C(C)C (stereo partly shown) [Compound 6av] | 9.00 to 12.00 |
| COC(=O)N[C@H](C(=O)N1CN(C(=O)N2Cc3cccc(OC)c3C2)CC1c1nc(-c2ccc(-c3ccc(-c4c[nH]c([C@@H]5CCCN5C(=O)[C@@H](NC(=O)OC)C(C)C)n4)cc3)cc2)c[nH]1)C(C)C (stereo partly shown) [Compound 6aw] | 9.00 to 12.00 |
| COC(=O)N[C@H](C(=O)N1CN(C(=O)N2Cc3cc(OC)c(OC)cc3C2)CC1c1nc(-c2ccc(-c3ccc(-c4c[nH]c([C@@H]5CCCN5C(=O)[C@@H](NC(=O)OC)C(C)C)n4)cc3)cc2)c[nH]1)C(C)C (stereo partly shown) [Compound 6ax] | 9.00 to 12.00 |
| COC(=O)NC(C(=O)N1CCC[C@H]1c1nc(-c2ccc(-c3ccc(-c4c[nH]c(C5CN(C(=O)N6Cc7ccc8c(c7C6)OCO8)CN5C(=O)[C@@H](NC(=O)OC)C(C)C)n4)cc3)cc2)c[nH]1)c1ccccc1 (stereo partly shown) [Compound 6ay] | 9.00 to 12.00 |
| COC(=O)N[C@H](C(=O)N1CC(OC(=O)N2Cc3cc4c(cc3C2)OCO4)CC1c1nc(-c2ccc3c(c2)Cc2cc(-c4c[nH]c([C@@H]5CCCN5C(=O)[C@@H](NC(=O)OC)C(C)C)n4)ccc2-3)c[nH]1)C(C)C (stereo partly shown) [Compound 6az] | 9.00 to 12.00 |
| CC(C)[C@H](NC(=O)OC(C)(C)C)C(=O)N1CCC[C@H]1c1nc(-c2ccc(-c3ccc(-c4cnc([C@@H]5C[C@@H](OC(=O)N6Cc7ccc8c(c7C6)OCO8)CN5C(=O)[C@@H](NC(=O)OC(C)(C)C)C(C)C)[nH]4)cc3)cc2)c[nH]1 [Compound 6b] | < 7.30 |
| CC(C)[C@H](NC(=O)OC1CCCC1)C(=O)N1CC=CC1c1ncc(-c2ccc(-c3ccc(-c4c[nH]c([C@@H]5C=CCN5C(=O)[C@@H](NC(=O)OC5CCCC5)C(C)C)n4)cc3)cc2)[nH]1 (stereo partly shown) [Compound 6bf] | < 7.30 |
| COC(=O)N[C@H](C(=O)N1CC=CC1c1nc(-c2ccc(-c3ccc(-c4c[nH]c([C@@H]5CCCN5C(=O)C5(NC(=O)OC)CC5)n4)cc3)cc2)c[nH]1)C(C)C (stereo partly shown) [Compound 6bh] | 9.00 to 12.00 |
